Read-outs that look alike come from different tables or passages of the source.
Target: T1, K-RasG12C (1-169) (Homo sapiens, UniProt P01116, G12C)
T1 construct: Un-tagged recombinant K-Ras G12C (1-169) at 4 μM in Buffer A; hexahistidine (cleaved yes); made in house; host or cells: Escherichia coli BL21 (DE)
Assay: Mass spectrometric screen for extent of covalent labeling
Format: binding
Details: for percent covalent labeling at 10 µM: 10 micromolar; for Labeling % (10 micM) 24h: 10 micM compound, (plate) or (single) measurement
Description: Un-tagged recombinant K-Ras G12C (1-169) at 4 μM in Buffer A was reacted with inhibitors at 200 μM or 10 μM (2% DMSO final). At 2, 6, and 24 hrs, 10 μL aliquots were removed and the reactions were stopped by addition of 1 μL 2% formic acid. The extent of modification was determined by mass spectrometry.

[1] = 2 h, 2 hrs, read-out: Percent reduction in activity of compound at 10 micromolar relative to control (no compound), 2 hrs
[2] = 6 h, 6 hrs, read-out: Percent reduction in activity of compound at 10 micromolar relative to control (no compound), 6 hrs
[3] = 24 h, 24 hrs, read-out: Percent reduction in activity of compound at 10 micromolar relative to control (no compound), 24 hrs

SMILES	percent covalent labeling at 10 µM [1] [%]	percent covalent labeling at 10 µM [2] [%]	percent covalent labeling at 10 µM [3] [%]	Labeling % (10 micM) 24h	Labeling % (10 micM) 24h (Table 5)
C=CS(=O)(=O)N1CCC2(CCN(C(=O)COc3ccc(Cl)cc3Cl)C2)C1 (stereo not shown) [JO-02-74B]	≤ 5	≤ 5	5 to 20		
C=CS(=O)(=O)N1CCC2(CN(C(=O)COc3ccc(Cl)cc3Cl)C2)C1 [JO-02-74C]	≤ 5	≤ 5	5 to 20		
O=C(COc1ccc(Cl)cc1Cl)N1CCC(NCC2CO2)CC1 (stereo not shown) [JO-02-77A]	≤ 5	≤ 5	≤ 5		
C=CS(=O)(=O)N1CCC2(CC1)CN(C(=O)COc1ccc(Cl)cc1Cl)C2 [JO-02-112A]	≤ 5	≤ 5	5 to 20		
C=CS(=O)(=O)C1CCC2(CC1)CCN(C(=O)COc1ccc(Cl)cc1Cl)C2 (stereo not shown) [JO-02-112B]	≤ 5	≤ 5	5 to 20		
C=CS(=O)(=O)NCC1CCN(C(=O)COc2ccc(Cl)cc2Cl)CC1 [JO-02-112C]	≤ 5	≤ 5	≤ 5		
C=CS(=O)(=O)N1CCN(C(=O)COc2ccc(Cl)cc2Cl)CC1 [JO-02-112D]	≤ 5	≤ 5	20 to 40	+++ (plate) (20%< +++ <=40%)	+++ (plate) (20%< +++ <=40%)
C=CS(=O)(=O)NC1CCN(C(=O)COc2ccc(Cl)cc2)CC1 [JO-02-115A]	≤ 5	≤ 5	≤ 5		
C=CS(=O)(=O)NC1CCN(C(=O)C(C)Oc2ccc(Cl)cc2Cl)CC1 (stereo not shown) [JO-02-115B]	≤ 5	≤ 5	≤ 5		
C=CS(=O)(=O)NC1CCN(C(=O)[C@@H](C)Oc2ccc(Cl)cc2Cl)CC1 [JO-02-115C]	≤ 5	≤ 5	≤ 5		
C=CS(=O)(=O)NC1CCN(C(=O)COc2cc(Cl)c(Cl)cc2Cl)CC1 [JO-02-115D]	≤ 5	≤ 5	20 to 40		
C=CS(=O)(=O)NC1CCN(C(=O)C(C)Oc2cc(Cl)c(Cl)cc2Cl)CC1 (stereo not shown) [JO-02-116A]	≤ 5	≤ 5	≤ 5		
C=CS(=O)(=O)NC1CCN(C(=O)COc2nc(Cl)c(Cl)cc2Cl)CC1 [JO-02-116B]	≤ 5	≤ 5	≤ 5		
C=CS(=O)(=O)NCC(=O)Nc1cc(-c2cccs2)n[nH]1 [JO-02-125]	≤ 5	≤ 5	20 to 40		
C=CS(=O)(=O)NCC(=O)Nc1cc(-c2ccc(Cl)cc2)n[nH]1 [JO-02-139E]	≤ 5	≤ 5	≤ 5		
C=CS(=O)(=O)NC1CCN(C(=O)CNc2cc(Cl)c(Cl)cc2I)CC1 [JO-02-144]	≤ 5	5 to 20	> 60		
O=C(NC1CCN(C(=O)CNc2cc(Cl)c(Cl)cc2I)CC1)C1CO1 (stereo not shown) [JO-02-152]	≤ 5	≤ 5	20 to 40		
C=CC(=O)N1CCN(C(=O)CNc2cc(Cl)c(Cl)cc2I)CC1 [JO-02-155]	≤ 5	5 to 20	40 to 60		
C=CC(=O)N1CC[C@@H](NC(=O)CNc2cc(Cl)c(Cl)cc2I)C1 [JO-02-157A (R)]	≤ 5	≤ 5	≤ 5		
C=CC(=O)N1CC[C@H](NC(=O)CNc2cc(Cl)c(Cl)cc2I)C1 [JO-02-157B (S)]	≤ 5	≤ 5	5 to 20		
C=CC(=O)N1CCN(C(=O)COc2ccc(Cl)cc2Cl)CC1 [JO-02-172]				+ (plate) (+ <=5%)	+ (plate) (+ <=5%)
N#CC1(NC(=O)C2CCN(C(=O)COc3ccc(Cl)cc3Cl)CC2)CC1 [Ras-001]	≤ 5	≤ 5	≤ 5		
C=CC(=O)NC1CCN(C(=O)COc2c(Cl)cc(Cl)cc2Cl)CC1 [Ras-002]	≤ 5	≤ 5	≤ 5		
C=CC(=O)NC1CCN(C(=O)Cn2cnc3ccccc32)CC1 [Ras-003]	≤ 5	≤ 5	≤ 5		

SMILES	percent covalent labeling at 10 µM [1] [%]	percent covalent labeling at 10 µM [2] [%]	percent covalent labeling at 10 µM [3] [%]	Labeling % (10 micM) 24h	Labeling % (10 micM) 24h (Table 5)
C=CC(=O)NC1CCN(C(=O)Cn2ncc3ccccc32)CC1 [Ras-004]	≤ 5	≤ 5	≤ 5		
C=CC(=O)NC1CCN(C(=O)CCn2cnc3ccccc32)CC1 [Ras-005]	≤ 5	≤ 5	≤ 5		
C=CC(=O)NC1CCN(C(=O)CCn2ncc3ccccc32)CC1 [Ras-006]	≤ 5	≤ 5	≤ 5		
CN(C)C/C=C/C(=O)NC1CCN(C(=O)COc2ccc(Cl)cc2Cl)CC1 [Ras-007]	≤ 5	≤ 5	≤ 5		
C=CS(=O)(=O)NC1CCN(C(=O)COc2c(Cl)cc(Cl)cc2Cl)CC1 [Ras-008]	≤ 5	≤ 5	≤ 5		
C=CS(=O)(=O)NC1CCN(C(=O)Cn2ncc3ccccc32)CC1 [Ras-009]	≤ 5	≤ 5	≤ 5		
C=CS(=O)(=O)NC1CCN(C(=O)CCn2ncc3ccccc32)CC1 [Ras-010]	≤ 5	≤ 5	≤ 5		
C=CS(=O)(=O)NC1CCN(C(=O)COc2cc(C(F)(F)F)c(Cl)cc2Cl)CC1 [Ras-011]	≤ 5	≤ 5	20 to 40		
C=CS(=O)(=O)NC1CCN(C(=O)CCn2cnc3ccccc32)CC1 [Ras-012]	≤ 5	≤ 5	≤ 5		
C=CS(=O)(=O)NC1CCN(C(=O)COc2cc(C#N)c(Cl)cc2Cl)CC1 [Ras-013]	≤ 5	≤ 5	5 to 20		
C=CS(=O)(=O)NC1CCN(C(=O)Cn2cnc3ccccc32)CC1 [Ras-014]	≤ 5	≤ 5	≤ 5		
C=CS(=O)(=O)NC1CCN(C(=O)COc2ccc(Cl)cc2Br)CC1 [Ras-015]	≤ 5	≤ 5	20 to 40		
C=CS(=O)(=O)NC1CCN(C(=O)COc2ccc(Cl)cc2NC(C)=O)CC1 [Ras-016]	≤ 5	≤ 5	≤ 5		
C=CS(=O)(=O)NC1CCN(C(=O)COc2ccc(Cl)cc2F)CC1 [Ras-017]	≤ 5	≤ 5	≤ 5		
C=CS(=O)(=O)NC1CCN(C(=O)COc2ccc(Cl)cc2C)CC1 [Ras-018]	≤ 5	≤ 5	20 to 40		
C=CS(=O)(=O)NC1CCN(C(=O)COc2cc(N)c(Cl)cc2Cl)CC1 [Ras-019]	≤ 5	≤ 5	5 to 20		
C=CS(=O)(=O)NC1CCN(C(=O)COc2ccc(Cl)cc2C(=O)OC)CC1 [Ras-020]	≤ 5	≤ 5	≤ 5		
C=CS(=O)(=O)NC1CCN(C(=O)COc2ccc(Cl)cc2C#N)CC1 [Ras-021]	≤ 5	≤ 5	≤ 5		
C=CS(=O)(=O)NC1CCN(C(=O)COc2cc(NC(C)=O)c(Cl)cc2Cl)CC1 [Ras-022]	≤ 5	≤ 5	≤ 5		
C=CS(=O)(=O)NC1CCN(C(=O)COc2ccc(Cl)cc2C(N)=O)CC1 [Ras-023]	≤ 5	≤ 5	≤ 5		
C=CS(=O)(=O)NC1CCN(C(=O)COc2cc(NC)c(Cl)cc2Cl)CC1 [Ras-024]	≤ 5	≤ 5	≤ 5		
C=CS(=O)(=O)NC1CCN(C(=O)COc2ccc(Cl)cc2C(=O)N(C)C)CC1 [Ras-025]	≤ 5	≤ 5	≤ 5		
C=CS(=O)(=O)NC1CCN(C(=O)COc2cc(N(C)C)c(Cl)cc2Cl)CC1 [Ras-026]	≤ 5	≤ 5	5 to 20		

From US11008334B2, “Compositions and methods for treating cancer” (The Regents of the University of California, priority 2012, dated 2021)
